From patent US20100226597A1, “BORTEZOMIB AND PROCESS FOR PRODUCING SAME” (DR. REDDY'S LABORATORIES LIMITED, priority 2007, published 2010)
“Also recorded” adds a separate entry of the source.

Legend:
[1] = Stability study of Bortezomib stored under general storage conditions (sealed polymeric bag, 25° C. and 60% RH), purity by HPLC; type: physicochemical
Description: (§1) HPLC measurements of Bortezomib samples for chemical purity were performed using Waters system, equipped with Waters symmetry shield RP-18, 250X4.6 mm ID, 5 μm, particle size and a UV detector operated on 270 nm. Analyses were performed using the following mobile phase, at flow rate of 1.0 ml/minute, run time 55 minutes. Mobile phase A: Mix 700 ml water, 300 ml Acetonitrile and 1 ml formic acid, filter and degas. Mobile phase B: Mix 800 ml Acetonitrile, 200 ml water and 1 ml formic acid, filter and degas. Elution: Gradient program

[2] = Stability study of aqueous solution of Bortezomib in basic medium (pH ~10.5), purity by HPLC
Description: A small quantity was taken from solution after 1 hours, 2 hours and 3 hours and the purity was checked by HPLC and compared to the original HPLC chromatogram of initial sample (immediately after adjusting the pH). The purity of each sample was obtained as % area by the HPLC chromatogram and compared to the initial purity value.
as §1

[3] = Stability study of Bortezomib in the exemplary storage system of the invention (two polybags with external desiccant), purity by HPLC; details: for Initial purity: % area by HPLC
Description: Two different samples of Bortezomib were stored at a storage condition of 2-8° C. and 25° C., 60% relative humidity (RH) in a storage system (packed in one Polybags having a thickness about 0.10 mm followed by repacking in another polybag having thickness of about 0.10 mm and containing external desiccant). A small quantity was taken from each sample after 15 days, 1 month (30th day), 2 months (60th day) and 3 months (90th day) and the purity was checked by HPLC and compared to the original HPLC chromatogram of each sample (before starting the storage period). The chemical purity of each sample was obtained as % area by the HPLC chromatogram and compared to the initial purity value (before starting the storage period).
as §1

[4] = 7th day, general storage conditions
[5] = 15th day, general storage conditions
[6] = 30th day, general storage conditions
[7] = initial, general storage conditions
[8] = after 1 hour, aqueous solution, pH ~10.5, 25 to 35° C.
[9] = after 2 hours, aqueous solution, pH ~10.5, 25 to 35° C.
[10] = after 3 hours, aqueous solution, pH ~10.5, 25 to 35° C.
[11] = initial, aqueous solution, pH ~10.5, 25 to 35° C.
[12] = stored at 2-8° C. in packaging of the invention, sample from methanol/water (Form A)
[13] = stored at 25° C. and 60% RH in packaging of the invention, sample from ethylacetate

Impurity-a content on 7th day [1, 4]: 0.06% | Impurity-b (RR and SS diastereomers) content on 7th day [1, 4]: 0.33% | Bortezomib purity by HPLC, Purity on 7th day ([1]; 7th day, general storage conditions, sample from ethylacetate): 99.34% | Impurity-a content on 15th day [1, 5]: 0.08% | Impurity-b (RR and SS diastereomers) content on 15th day [1, 5]: 0.35% | Bortezomib purity by HPLC, Purity on 15th day ([1]; 15th day, general storage conditions, sample from ethylacetate): 98.92% | Impurity-a content on 30th day [1, 6]: 0.18% | Impurity-b (RR and SS diastereomers) content on 30th day [1, 6]: 0.39% | Bortezomib purity by HPLC, Purity on 30th day ([1]; 30th day, general storage conditions, sample from ethylacetate): 97.22% | Impurity-a content, Initial [1, 7]: 0.06% | Impurity-b (RR and SS diastereomers) content, Initial [1, 7]: 0.36% | Bortezomib purity by HPLC, Initial purity ([1]; initial, general storage conditions, sample from ethylacetate): 99.49% | Chemical Purity by HPLC, After 1 hour [2, 8]: 98.24% | Impurity-a content, After 1 hour [2, 8]: 0.8924% | Impurity-b (RR and SS diastereomers) content, After 1 hour [2, 8]: 0.4005% | Chemical Purity by HPLC, After 2 hour [2, 9]: 98.01% | Impurity-a content, After 2 hour [2, 9]: 0.9587% | Impurity-b (RR and SS diastereomers) content, After 2 hour [2, 9]: 0.4746% | Chemical Purity by HPLC, After 3 hours [2, 10]: 97.77% | Impurity-a content, After 3 hours [2, 10]: 1.0229% | Impurity-b (RR and SS diastereomers) content, After 3 hours [2, 10]: 0.5418% | Chemical Purity by HPLC, Initial ([2]; initial (immediately after adjusting the pH), aqueous solution, pH ~10.5 (2N NaOH), 25 to 35° C.): 98.61% | Impurity-a content, Initial [2, 11]: 0.7899% | Impurity-b (RR and SS diastereomers) content, Initial [2, 11]: 0.2991% | Purity on 15th day [3, 12]: 99.59% | Purity on 15th day [3, 13]: 99.56% | Purity on 30th day [3, 12]: 99.59% | Purity on 30th day [3, 13]: 99.60% | Purity on 60th day [3, 12]: 99.65% | Purity on 60th day [3, 13]: 99.63% | Purity on 90th day [3, 12]: 99.66% | Purity on 90th day [3, 13]: 99.54% | Initial purity [3, 12]: 99.60% | Initial purity [3, 13]: 99.58%
Structure (SMILES): CC(C)C[C@H](NC(=O)[C@H](Cc1ccccc1)NC(=O)c1cnccn1)B(O)O [Bortezomib, [(1R)-3-methyl-1-[[(2S)-1-oxo-3-phenyl-2-[(pyrazinylcarbonyl)amino]propyl]amino]butyl]boronic acid]
Storage stability in words ([1]; sealed polymeric bag without desiccants, normal temperature): unstable; also recorded: substantial degradation of product | Stability in aqueous basic solution in words ([2]; aqueous solution maintained under stirring in a basic medium): decrease the purity; also recorded: purity of the compound decreased continually | Storage stability in words ([3]; packaging conditions of the invention, prolonged storage periods): can be stabilized while retaining its purity content over prolonged storage periods
